# Experimental data from ChEMBL document CHEMBL3352017, “2-Guanidinoquinazolines as new inhibitors of the STAT3 pathway” (Bioorg Med Chem Lett, 2014).
# Active and inactive are the calls of the source. No cut-off for these calls is given here.
# Columns and labels:
# [1] = Selectivity index, ratio of IC50 for IFNgamma-induced STAT1 pathway in human Cal33 cells to IC50 for IL-6-induced STAT3 pathway in human Cal33 cells; type: cell-based; conditions: CAL-33
# [2] = system: FaDu; test: cells; conditions: Homo sapiens
# [3] = biological target: Tyrosine-protein kinase JAK2 (Homo sapiens) (UniProt O60674); test: Inhibition of JAK2 phosphorylation in human Cal33 cells by Western blot analysis; type: cell-based; conditions: CAL-33
# [4] = cells; conditions: Homo sapiens, CAL-33
# [5] = cells; conditions: Homo sapiens, OSC19
# [6] = biological target: Tyrosine-protein kinase JAK1 (Homo sapiens) (UniProt P23458); test: Inhibition of JAK1 phosphorylation in human Cal33 cells by Western blot analysis; type: cell-based; conditions: CAL-33
# [7] = cells; conditions: Homo sapiens
# [8] = biological target: T1, Signal transducer and activator of transcription 1-alpha/beta (Homo sapiens) (UniProt P42224); test: Inhibition of IFNgamma-induced STAT1 pathway in human Cal33 cells at 50 uM; type: cell-based; conditions: CAL-33
# T1 sequence (whole entry): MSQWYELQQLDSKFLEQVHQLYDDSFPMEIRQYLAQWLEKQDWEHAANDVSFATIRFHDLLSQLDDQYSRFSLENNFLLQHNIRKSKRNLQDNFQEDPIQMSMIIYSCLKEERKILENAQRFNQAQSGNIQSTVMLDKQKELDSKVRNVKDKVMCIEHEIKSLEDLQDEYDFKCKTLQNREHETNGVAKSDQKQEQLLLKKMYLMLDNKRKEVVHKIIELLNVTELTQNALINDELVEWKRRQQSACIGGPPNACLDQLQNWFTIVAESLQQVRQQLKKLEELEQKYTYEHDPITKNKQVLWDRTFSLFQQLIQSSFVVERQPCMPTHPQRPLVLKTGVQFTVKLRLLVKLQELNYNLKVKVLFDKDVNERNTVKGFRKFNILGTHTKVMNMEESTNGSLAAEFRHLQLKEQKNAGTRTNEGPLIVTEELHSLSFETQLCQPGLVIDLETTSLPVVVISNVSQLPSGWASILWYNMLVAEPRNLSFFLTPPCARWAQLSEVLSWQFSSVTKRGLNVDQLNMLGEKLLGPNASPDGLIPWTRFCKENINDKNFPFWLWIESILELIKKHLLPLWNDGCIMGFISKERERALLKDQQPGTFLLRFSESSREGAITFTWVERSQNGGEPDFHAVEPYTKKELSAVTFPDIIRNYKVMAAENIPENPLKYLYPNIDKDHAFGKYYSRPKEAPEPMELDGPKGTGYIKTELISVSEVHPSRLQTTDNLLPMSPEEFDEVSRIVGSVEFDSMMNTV
# Chain of Tyrosine-protein kinase JAK2 (Homo sapiens) (O60674 whole entry): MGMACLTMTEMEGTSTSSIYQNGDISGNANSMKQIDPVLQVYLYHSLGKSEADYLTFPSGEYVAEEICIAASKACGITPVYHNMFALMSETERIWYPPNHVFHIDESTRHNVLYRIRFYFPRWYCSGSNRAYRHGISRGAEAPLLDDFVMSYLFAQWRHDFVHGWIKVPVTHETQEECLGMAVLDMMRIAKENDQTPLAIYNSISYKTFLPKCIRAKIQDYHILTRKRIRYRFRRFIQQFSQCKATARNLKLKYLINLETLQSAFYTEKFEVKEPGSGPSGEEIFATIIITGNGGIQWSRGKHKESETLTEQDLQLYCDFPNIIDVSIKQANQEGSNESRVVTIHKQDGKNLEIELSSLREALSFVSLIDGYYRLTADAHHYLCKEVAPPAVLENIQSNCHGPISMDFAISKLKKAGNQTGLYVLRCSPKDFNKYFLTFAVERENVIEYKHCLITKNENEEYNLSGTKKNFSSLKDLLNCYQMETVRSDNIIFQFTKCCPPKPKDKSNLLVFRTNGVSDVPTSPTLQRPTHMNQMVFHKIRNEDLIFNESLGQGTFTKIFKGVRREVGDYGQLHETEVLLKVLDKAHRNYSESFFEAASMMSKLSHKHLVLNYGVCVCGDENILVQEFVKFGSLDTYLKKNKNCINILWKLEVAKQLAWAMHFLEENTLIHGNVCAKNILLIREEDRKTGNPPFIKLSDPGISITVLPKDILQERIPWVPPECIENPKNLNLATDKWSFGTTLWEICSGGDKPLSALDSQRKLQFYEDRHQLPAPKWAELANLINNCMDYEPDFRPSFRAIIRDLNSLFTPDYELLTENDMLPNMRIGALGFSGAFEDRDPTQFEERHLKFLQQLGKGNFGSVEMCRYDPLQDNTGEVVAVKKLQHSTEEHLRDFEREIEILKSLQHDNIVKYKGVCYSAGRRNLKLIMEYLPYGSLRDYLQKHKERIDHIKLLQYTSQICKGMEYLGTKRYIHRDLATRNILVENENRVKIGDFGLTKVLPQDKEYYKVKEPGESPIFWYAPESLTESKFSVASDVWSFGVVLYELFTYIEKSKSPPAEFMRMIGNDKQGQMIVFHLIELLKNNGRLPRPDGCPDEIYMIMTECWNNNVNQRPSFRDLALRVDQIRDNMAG
# Chain of Tyrosine-protein kinase JAK1 (Homo sapiens) (P23458 whole entry): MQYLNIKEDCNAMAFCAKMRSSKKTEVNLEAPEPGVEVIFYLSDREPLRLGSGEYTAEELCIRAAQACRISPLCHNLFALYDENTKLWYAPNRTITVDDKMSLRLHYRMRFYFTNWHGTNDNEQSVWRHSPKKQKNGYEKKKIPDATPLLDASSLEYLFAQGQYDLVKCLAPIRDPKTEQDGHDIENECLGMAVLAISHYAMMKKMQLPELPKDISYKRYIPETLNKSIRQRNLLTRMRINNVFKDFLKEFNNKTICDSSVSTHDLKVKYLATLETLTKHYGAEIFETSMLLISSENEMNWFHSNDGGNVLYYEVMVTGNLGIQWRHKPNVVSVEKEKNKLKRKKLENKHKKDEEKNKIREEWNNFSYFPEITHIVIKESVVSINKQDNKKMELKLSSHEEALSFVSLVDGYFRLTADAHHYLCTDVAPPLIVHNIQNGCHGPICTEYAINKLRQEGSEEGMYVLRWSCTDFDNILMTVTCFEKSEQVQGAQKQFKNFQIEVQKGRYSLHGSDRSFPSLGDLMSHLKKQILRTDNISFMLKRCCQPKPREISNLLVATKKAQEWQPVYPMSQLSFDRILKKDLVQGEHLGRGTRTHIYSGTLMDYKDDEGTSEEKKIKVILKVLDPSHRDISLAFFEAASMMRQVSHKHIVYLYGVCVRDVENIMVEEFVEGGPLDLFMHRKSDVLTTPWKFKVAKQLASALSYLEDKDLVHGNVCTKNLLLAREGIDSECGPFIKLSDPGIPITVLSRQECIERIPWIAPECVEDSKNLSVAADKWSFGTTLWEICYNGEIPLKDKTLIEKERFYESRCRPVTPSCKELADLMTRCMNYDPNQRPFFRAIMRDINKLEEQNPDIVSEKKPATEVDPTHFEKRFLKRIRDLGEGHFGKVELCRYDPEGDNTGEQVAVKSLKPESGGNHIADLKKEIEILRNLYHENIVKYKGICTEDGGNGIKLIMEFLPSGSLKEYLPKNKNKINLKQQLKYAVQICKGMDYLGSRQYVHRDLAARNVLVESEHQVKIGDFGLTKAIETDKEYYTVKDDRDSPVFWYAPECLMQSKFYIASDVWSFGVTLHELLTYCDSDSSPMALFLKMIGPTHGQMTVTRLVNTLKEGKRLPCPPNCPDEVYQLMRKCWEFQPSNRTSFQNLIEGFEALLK
Compound,IC50 [5] [µM],IC50 [7] [µM],Ratio IC50 [1],further results
Cc1cc(C)c2nc(Nc3nc(C)c(C)c(O)n3)nc(C)c2c1,,,> 7,
Cc1nc(Nc2nc(=O)cc(-c3ccccc3)[nH]2)nc2cc3c(cc12)OCO3,,,> 3,
Cc1cc2nc(Nc3nc(=O)c(C)c(C)[nH]3)nc(C)c2cc1C,,,> 4,
COc1ccc2nc(Nc3nc(=O)cc(C)[nH]3)nc(C)c2c1,,,> 1,

# Further lines, with some results ahead:
IC50 [5] [µM],IC50 [7] [µM],Compound,Ratio IC50 [1],further results
17,37.5,CCOc1ccc2nc(NC3=NC(C)=CC(C)(C)N3)nc(C)c2c1,,IC50 [2]: 18.8 µM; inhibition [3]: inactive; IC50 [4]: 29.4 µM; inhibition [6]: inactive; inhibition [8]: inactive
12.8,49.3,CC1=CC(C)(C)N=C(Nc2nc(C)c3cc(C)ccc3n2)N1,,
19,37.8,CCOc1ccc2nc(Nc3nc(=O)cc(-c4ccccc4)[nH]3)nc(C)c2c1,,
3.2,2.4,CC1=CC(C)(C)N=C(Nc2nc(C)c3cc(C)cc(C)c3n2)N1,,IC50 [2]: 1.9 µM; IC50 [4]: 1.2 µM
